The record followed here is patent US11325889B2, “Substituted 3-((3-aminophenyl)amino)piperidine-2,6-dione compounds, compositions thereof, and methods of treatment therewith” (Celgene Corporation, priority 2018, dated 2022).

The target in the test is T1, AR protein in VCaP cells (Homo sapiens, UniProt P10275).
T1 construct: endogenous in cells; host or cells: VCaP cells
T1 sequence (P10275 1-920): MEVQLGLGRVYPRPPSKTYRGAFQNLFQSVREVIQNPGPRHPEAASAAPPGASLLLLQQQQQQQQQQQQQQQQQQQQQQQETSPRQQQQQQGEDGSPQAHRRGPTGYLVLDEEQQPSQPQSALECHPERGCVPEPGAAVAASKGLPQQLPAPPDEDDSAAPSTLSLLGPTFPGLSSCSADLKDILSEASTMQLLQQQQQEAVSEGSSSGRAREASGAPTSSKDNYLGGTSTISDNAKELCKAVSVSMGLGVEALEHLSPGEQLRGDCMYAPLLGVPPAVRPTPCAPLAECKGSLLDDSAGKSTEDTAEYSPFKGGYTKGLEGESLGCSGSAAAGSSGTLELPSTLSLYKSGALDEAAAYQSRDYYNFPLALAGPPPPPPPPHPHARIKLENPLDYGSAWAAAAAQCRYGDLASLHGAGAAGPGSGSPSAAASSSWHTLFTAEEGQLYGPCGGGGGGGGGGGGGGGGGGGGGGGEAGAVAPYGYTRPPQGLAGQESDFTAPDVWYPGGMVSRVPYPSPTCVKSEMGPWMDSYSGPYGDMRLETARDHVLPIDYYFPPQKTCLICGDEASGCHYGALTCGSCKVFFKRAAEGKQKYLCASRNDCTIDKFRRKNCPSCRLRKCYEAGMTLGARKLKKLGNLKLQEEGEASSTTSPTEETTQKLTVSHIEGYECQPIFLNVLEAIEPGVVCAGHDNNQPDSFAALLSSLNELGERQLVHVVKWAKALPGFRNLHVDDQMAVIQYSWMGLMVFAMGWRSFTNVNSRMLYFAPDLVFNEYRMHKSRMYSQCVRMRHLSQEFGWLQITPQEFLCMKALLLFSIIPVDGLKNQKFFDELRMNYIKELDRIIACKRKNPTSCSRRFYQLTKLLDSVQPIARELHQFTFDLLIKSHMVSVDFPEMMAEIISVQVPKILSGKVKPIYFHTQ
Briefly: VCAP AR Degradation Assay (AR ELISA, 24 h). The following applies: for Y (lowest measured AR level normalized to DMSO control): AR degradation efficiency; for DC50: concentration of compound when AR level = 50% of DMSO control. The test is classed as cell-based. The gist of the method:
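VCaP cells in DMEM with 8% FBS exposed for 24 h at 37° C to a 10-point, 1:3 series (final top concentration […]; 0.1% DMSO control). Lysate AR measured by sandwich ELISA and normalized to DMSO as percent of control. DC50, EC50 and lowest AR level (Y) from four-parameter logistic fit.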
(In an ELISA, binding on a coated surface is turned into a signal by an enzyme label.)

Where two headings read alike, the source gives them in different places.

The DC50 is the concentration at which degradation of the target reaches its halfway point. For the molecule `CCc1cc(N2C(=S)N(c3ccc(C#N)c(C(F)(F)F)c3)C(=O)C23CCC3)ccc1OCCC1CCN(CC(=O)Nc2cc(NC3CCC(=O)NC3=O)ccc2F)CC1` (stereo not shown) [Cmpd 57, 2-(4-(2-(4-(7-(4-cyano-3-(trifluoromethyl)phenyl)-8-oxo-6-thioxo-5,7-diazaspiro[3.4]octan-5-yl)-2-ethylphenoxy)ethyl)piperidin-1-yl)-N-(5-(2,6-dioxopiperidin-3-ylamino)-2-fluorophenyl)acetamide], the “Y (lowest measured AR level normalized to DMSO control)” value is “* (0<Y<=25%)”. Moreover, the DC50 (read-out: DC50) lay within 100 to 500 nM.

Turning to `CCc1cc(N2C(=S)N(c3cnc(C#N)c(C(F)(F)F)c3)C(=O)C2(C)C)ccc1OCCC1(F)CCN(CC(=O)Nc2cccc(NC3CCC(=O)NC3=O)c2)CC1` (stereo not shown) [Cmpd 89, 2-(4-(2-(4-(3-(6-cyano-5-(trifluoromethyl)pyridin-3-yl)-5,5-dimethyl-4-oxo-2-thioxoimidazolidin-1-yl)-2-ethylphenoxy)ethyl)-4-fluoropiperidin-1-yl)-N-(3-(2,6-dioxopiperidin-3-ylamino)phenyl)acetamide], the “Y (lowest measured AR level normalized to DMSO control)” value is listed as “* (0<Y<=25%)”. Also, the DC50 (read-out: DC50) is less than 100 nM.

Turning to `CCc1cc(N2C(=S)N(c3cnc(C#N)c(C(F)(F)F)c3)C(=O)C2(C)C)ccc1OCCC1CCN([C@H](C)C(=O)Nc2cc(C#N)cc(NC3CCC(=O)NC3=O)c2)CC1` (stereo partly drawn) [Cmpd 38, (2R)-N-(3-cyano-5-(2,6-dioxopiperidin-3-ylamino)phenyl)-2-(4-(2-(4-(3-(6-cyano-5-(trifluoromethyl)pyridin-3-yl)-5,5-dimethyl-4-oxo-2-thioxoimidazolidin-1-yl)-2-ethylphenoxy)ethyl)piperidin-1-yl)propanamide], the “Y (lowest measured AR level normalized to DMSO control)” value is recorded as “** (25%<Y<=35%)”. Moreover, the DC50 (read-out: DC50) was less than 100 nM.

For `CC(C)c1cc(N2C(=S)N(c3ccc(C#N)c(C(F)(F)F)c3)C(=O)C2(C)C)cnc1OCC[C@H]1C[C@@H](C)N(CC(=O)Nc2cccc(NC3CCC(=O)NC3=O)c2)[C@@H](C)C1` (stereo partly drawn) [Cmpd 94, 2-((2S,4r,6R)-4-(2-((5-(3-(4-cyano-3-(trifluoromethyl)phenyl)-5,5-dimethyl-4-oxo-2-thioxoimidazolidin-1-yl)-3-isopropylpyridin-2-yl)oxy)ethyl)-2,6-dimethylpiperidin-1-yl)-N-(3-((2,6-dioxopiperidin-3-yl)amino)phenyl)acetamide], the “Y (lowest measured AR level normalized to DMSO control)” value was “** (25%<Y<=35%)”. Besides, the half-maximal degradation concentration (DC50) (read-out: DC50) lay within 500 to 1000 nM.

Take `CCc1cc(N2C(=S)N(c3cnc(C#N)c(C(F)(F)F)c3)C(=O)C2(C)C)ccc1OCCC1CCN(CC(=O)Nc2cc(NC3CCC(=O)NC3=O)ccc2F)CC1` (stereo not shown) [Cmpd 15, 2-(4-(2-(4-(3-(6-cyano-5-(trifluoromethyl)pyridin-3-yl)-5,5-dimethyl-4-oxo-2-thioxoimidazolidin-1-yl)-2-ethylphenoxy)ethyl)piperidin-1-yl)-N-(5-(2,6-dioxopiperidin-3-ylamino)-2-fluorophenyl)acetamide]: the “Y (lowest measured AR level normalized to DMSO control)” value is “* (0<Y<=25%)”. In addition, where the note is “read-out: DC50”, the DC50 was less than 100 nM.

Take `CCc1cc(N2C(=S)N(c3cnc(C#N)c(C(F)(F)F)c3)C(=O)C23CCC3)ccc1OCCC1CCN([C@@H](C)C(=O)Nc2cc(Cl)cc(NC3CCC(=O)NC3=O)c2)CC1` (stereo partly drawn) [Cmpd 35, (2S)-N-(3-chloro-5-(2,6-dioxopiperidin-3-ylamino)phenyl)-2-(4-(2-(4-(7-(6-cyano-5-(trifluoromethyl)pyridin-3-yl)-8-oxo-6-thioxo-5,7-diazaspiro[3.4]octan-5-yl)-2-ethylphenoxy)ethyl)piperidin-1-yl)propanamide]: the “Y (lowest measured AR level normalized to DMSO control)” value is listed as “* (0<Y<=25%)”. In addition, for the setting “read-out: DC50”, the DC50 lay within 100 to 500 nM.

Consider `CCc1cc(N2C(=S)N(c3ccc(C#N)c(C(F)(F)F)c3)C(=O)C2(C)C)ccc1OCCC1CCN([C@H](C)C(=O)Nc2cccc(NC3CCC(=O)NC3=O)c2)CC1` (stereo partly drawn) [Cmpd 42, (2R)-2-(4-(2-(4-(3-(4-cyano-3-(trifluoromethyl)phenyl)-5,5-dimethyl-4-oxo-2-thioxoimidazolidin-1-yl)-2-ethylphenoxy)ethyl)piperidin-1-yl)-N-(3-(2,6-dioxopiperidin-3-ylamino)phenyl)propanamide], for which the “Y (lowest measured AR level normalized to DMSO control)” value was “** (25%<Y<=35%)”. For the same molecule, the DC50 (read-out: DC50) lay in the range of 100 to 500 nM.

As for `CCc1cc(N2C(=S)N(c3cnc(C#N)c(C(F)(F)F)c3)C(=O)C23CCC3)ccc1OCCC1CCN([C@@H](C)C(=O)Nc2cccc(NC3CCC(=O)NC3=O)c2)CC1` (stereo partly drawn) [Cmpd 83, (2S)-2-(4-(2-(4-(7-(6-cyano-5-(trifluoromethyl)pyridin-3-yl)-8-oxo-6-thioxo-5,7-diazaspiro[3.4]octan-5-yl)-2-ethylphenoxy)ethyl)piperidin-1-yl)-N-(3-(2,6-dioxopiperidin-3-ylamino)phenyl)propanamide], the “Y (lowest measured AR level normalized to DMSO control)” value is “* (0<Y<=25%)”. For the same molecule, the DC50 (read-out: DC50) was less than 100 nM.

As for `CCc1cc(N2C(=S)N(c3cnc(C#N)c(C(F)(F)F)c3)C(=O)C23CCC3)ccc1OCCC1CCN(CC(=O)Nc2cc(NC3CCC(=O)NC3=O)ccc2F)CC1` (stereo not shown) [Cmpd 56, 2-(4-(2-(4-(7-(6-cyano-5-(trifluoromethyl)pyridin-3-yl)-8-oxo-6-thioxo-5,7-diazaspiro[3.4]octan-5-yl)-2-ethylphenoxy)ethyl)piperidin-1-yl)-N-(5-(2,6-dioxopiperidin-3-ylamino)-2-fluorophenyl)acetamide], the “Y (lowest measured AR level normalized to DMSO control)” value is “* (0<Y<=25%)”. Moreover, for the setting “read-out: DC50”, the DC50 lay in the range of 100 to 500 nM.

With `CCc1cc(N2C(=S)N(c3cnc(C#N)c(C(F)(F)F)c3)C(=O)C2(C)C)ccc1OCCC1CCN([C@H](C)C(=O)Nc2cccc(N[C@H]3CCC(=O)NC3=O)c2)CC1` [Cmpd 47, (R)-2-(4-(2-(4-(3-(6-cyano-5-(trifluoromethyl)pyridin-3-yl)-5,5-dimethyl-4-oxo-2-thioxoimidazolidin-1-yl)-2-ethylphenoxy)ethyl)piperidin-1-yl)-N-(3-((S)-2,6-dioxopiperidin-3-ylamino)phenyl)propanamide], the “Y (lowest measured AR level normalized to DMSO control)” value is given as “* (0<Y<=25%)”. Moreover, where the note is “read-out: DC50”, the DC50 was less than 100 nM.

As to `CC1(C)C(=O)N(c2ccc(C#N)c(C(F)(F)F)c2)C(=S)N1c1ccc(OC2CCN(CC(=O)Nc3cccc(NC4CCC(=O)NC4=O)c3)CC2)c(F)c1` (stereo not shown) [Cmpd 1, 2-(4-(4-(3-(4-cyano-3-(trifluoromethyl)phenyl)-5,5-dimethyl-4-oxo-2-thioxoimidazolidin-1-yl)-2-fluorophenoxy)piperidin-1-yl)-N-(3-(2,6-dioxopiperidin-3-ylamino)phenyl)acetamide], the “Y (lowest measured AR level normalized to DMSO control)” value is given as “** (25%<Y<=35%)”. In addition, the DC50 (read-out: DC50) is less than 100 nM.

Consider `CCc1cc(N2C(=S)N(c3cnc(C#N)c(C(F)(F)F)c3)C(=O)C2(C)C)ccc1OCC[C@@H]1C[C@H]2CC[C@@H](C1)N2CC(=O)Nc1cccc(NC2CCC(=O)NC2=O)c1` (stereo partly drawn) [Cmpd 66, 2-((1R,3s,5S)-3-(2-(4-(3-(6-cyano-5-(trifluoromethyl)pyridin-3-yl)-5,5-dimethyl-4-oxo-2-thioxoimidazolidin-1-yl)-2-ethylphenoxy)ethyl)-8-azabicyclo[3.2.1]octan-8-yl)-N-(3-(2,6-dioxopiperidin-3-ylamino)phenyl)acetamide], for which the “Y (lowest measured AR level normalized to DMSO control)” value was “* (0<Y<=25%)” and the DC50 is less than 100 nM.

For `CC(F)(F)c1cc(N2C(=S)N(c3ccc(C#N)c(C(F)(F)F)c3)C(=O)C2(C)C)ccc1OCCC1CCN(CC(=O)Nc2cc(Cl)cc(NC3CCC(=O)NC3=O)c2)CC1` (stereo not shown) [Cmpd 30, N-(3-chloro-5-(2,6-dioxopiperidin-3-ylamino)phenyl)-2-(4-(2-(4-(3-(4-cyano-3-(trifluoromethyl)phenyl)-5,5-dimethyl-4-oxo-2-thioxoimidazolidin-1-yl)-2-(1,1-difluoroethyl)phenoxy)ethyl)piperidin-1-yl)acetamide], the “Y (lowest measured AR level normalized to DMSO control)” value is “* (0<Y<=25%)”. Under “read-out: DC50”, the DC50 was in the range of 100 to 500 nM.

For the molecule `CCc1cc(N2C(=S)N(c3ccc(C#N)c(C(F)(F)F)c3)C(=O)C23CCC3)ccc1OCCC1CCN(CC(=O)Nc2cc(Cl)cc(NC3CCC(=O)NC3=O)c2)CC1` (stereo not shown) [Cmpd 28, N-(3-chloro-5-(2,6-dioxopiperidin-3-ylamino)phenyl)-2-(4-(2-(4-(7-(4-cyano-3-(trifluoromethyl)phenyl)-8-oxo-6-thioxo-5,7-diazaspiro[3.4]octan-5-yl)-2-ethylphenoxy)ethyl)piperidin-1-yl)acetamide], the “Y (lowest measured AR level normalized to DMSO control)” value is “* (0<Y<=25%)”. For the setting “read-out: DC50”, the DC50 was 100 to 500 nM.
